Experimental data reported in patent publication US11986532B2 (Arvinas Operations, Inc., priority 2021, dated 2024).
Read-outs that look alike come from different tables or passages of the source.

Biological target: T1, BCL6 (Homo sapiens, UniProt P41182)
T1 construct: endogenous in cells; host or cells: T47D breast cancer epithelial cells
Assay: Immunofluorescence protocol for high content imaging of BCL6 (degradation) in T47D cells, 3 days compound treatment
Assay type: cell-based
Details: for Dmax: read-out: Mean Dmax (%)** category; for DC50: read-out: Mean DC50 (nM)* category
In short: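 For degradation, compound series (3-fold, 11 points, top 0.1 or 1 μM final) were added to adherent T47D cultures for 3 days. BCL6 immunostaining used a rabbit antibody at 1:300 and an Alexa-488 secondary, with imaging at 10× magnification.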

[1] = T47D cells, 3 days compound treatment

| DC50 [1] | Dmax [1] | SMILES | Dmax (T47D) | DC50 |
| --- | --- | --- | --- | --- |
| < 10 nM | 50 to 70% | CNC(=O)COc1cc2cc(Nc3nc(N4CCC5(CC4)CC(C(=O)N4CCN(c6cccc7c6CN(C6CCC(=O)NC6=O)C7=O)CC4)C5)ncc3Cl)ccc2n(C(C)C)c1=O (stereo not drawn) [Compound 27, 2-[(6-{[5-chloro-2-(2-{4-[2-(2,6-dioxopiperidin-3-yl)-1-oxo-2,3-dihydro-1H-isoindol-4-yl]piperazine-1-carbonyl}-7-azaspiro [3.5]nonan-7-yl)pyrimidin-4-yl]amino}-2-oxo-1-(propan-2-yl)-1,2-dihydroquinolin-3-yl)oxy]-N-methylacetamide] | – | – |
| < 10 nM | – | CNC(=O)COc1cc2cc(Nc3ncncc3Cl)ccc2n(CCOc2ccc3c(c2)C(=O)N(C2CCC(=O)NC2=O)C3=O)c1=O (stereo not drawn) [Compound 146, 2-({6-[(5-chloropyrimidin-4-yl)amino]-1-(2-{[2-(2,6-dioxopiperidin-3-yl)-1,3-dioxo-2,3-dihydro-1H-isoindol-5-yl]oxy}ethyl)-2-oxo-1,2-dihydroquinolin-3-yl}oxy)-N-methylacetamide] | – | – |
| < 10 nM | 50 to 70% | CNC(=O)COc1cc2cc(Nc3nc(N4CCC(OC5CCC6(CC5)CN(c5ccc7c(c5)CN(C5CCC(=O)NC5=O)C7=O)C6)CC4)ncc3Cl)ccc2n(C(C)C)c1=O (stereo not drawn) [Compound 49, 2-{[6-({5-chloro-2-[4-({2-[2-(2,6-dioxopiperidin-3-yl)-1-oxo-2,3-dihydro-1H-isoindol-5-yl]-2-azaspiro[3.5]nonan-7-yl}oxy)piperidin-1-yl]pyrimidin-4-yl}amino)-2-oxo-1-(propan-2-yl)-1,2-dihydroquinolin-3-yl]oxy}-N-methylacetamide] | – | – |

More lines, now with the values behind:

| SMILES | DC50 [1] | Dmax [1] | Dmax (T47D) | DC50 |
| --- | --- | --- | --- | --- |
| CNC(=O)COc1cc2cc(Nc3nc(N4CCN(CC5CCC6(CC5)CN(c5ccc7c(c5F)CN(C5CCC(=O)NC5=O)C7=O)C6)CC4)ncc3Cl)ccc2n(C(C)C)c1=O (stereo not drawn) [Compound 307, 2-{[6-({5-chloro-2-[4-({2-[2-(2,6-dioxopiperidin-3-yl)-4-fluoro-1-oxo-2,3-dihydro-1H-isoindol-5-yl]-2-azaspiro[3.5]nonan-7-yl}methyl)piperazin-1-yl]pyrimidin-4-yl}amino)-2-oxo-1-(propan-2-yl)-1,2-dihydroquinolin-3-yl]oxy}-N-methylacetamide] | – | – | 50 to 70% | < 10 nM |
| CNC(=O)COc1cc2cc(Nc3nc(N4CCN(C(C)(C)C5CCN(c6ccc7c(c6)CN(C6CCC(=O)NC6=O)C7=O)CC5)CC4)ncc3Cl)ccc2n(C(C)C)c1=O (stereo not drawn) [Compound 13, 2-{[6-({5-chloro-2-[4-(2-{1-[2-(2,6-dioxopiperidin-3-yl)-1-oxo-2,3-dihydro-1H-isoindol-5-yl]piperidin-4-yl}propan-2-yl)piperazin-1-yl]pyrimidin-4-yl}amino)-2-oxo-1-(propan-2-yl)-1,2-dihydroquinolin-3-yl]oxy}-N-methylacetamide] | < 10 nM | ≥ 70% | – | – |
| CNC(=O)COc1cc2cc(Nc3nc(N4CCC(O[C@H]5C[C@H](N6CCC(c7ccc8c(c7F)CN([C@@H]7CCC(=O)NC7=O)C8=O)CC6)C5)CC4)ncc3Cl)ccc2n(C(C)C)c1=O [Compound 384, 2-({6-[(5-chloro-2-{4-[(1r,3r)-3-(4-{2-[(3R)-2,6-dioxopiperidin-3-yl]-4-fluoro-1-oxo-2,3-dihydro-1H-isoindol-5-yl}piperidin-1-yl)cyclobutoxy]piperidin-1-yl}pyrimidin-4-yl)amino]-2-oxo-1-(propan-2-yl)-1,2-dihydroquinolin-3-yl}oxy)-N-methylacetamide] | – | – | 50 to 70% | < 10 nM |
| CNC(=O)COc1cc2cc(Nc3nc(N4CCC(O[C@H]5C[C@H](N6CCN(c7c(OC)cc8c(c7C)C(=O)N(C7CCC(=O)NC7=O)C8=O)CC6)C5)CC4)ncc3Cl)ccc2n(C(C)C)c1=O (stereo partly drawn) [Compound 266, 2-({6-[(5-chloro-2-{4-[(1r,3r)-3-{4-[2-(2,6-dioxopiperidin-3-yl)-6-methoxy-4-methyl-1,3-dioxo-2,3-dihydro-1H-isoindol-5-yl]piperazin-1-yl}cyclobutoxy]piperidin-1-yl}pyrimidin-4-yl)amino]-2-oxo-1-(propan-2-yl)-1,2-dihydroquinolin-3-yl}oxy)-N-methylacetamide] | – | – | ≥ 70% | < 10 nM |
| CNC(=O)COc1cc2cc(Nc3nc(N4CCC(CN5CCC6(CN(c7ccc8c(c7)C(=O)N(C7CCC(=O)NC7=O)C8=O)C6)CC5(C)C)CC4)ncc3Cl)ccc2n(C(C)C)c1=O (stereo not drawn) [Compound 239, 2-{[6-({5-chloro-2-[4-({2-[2-(2,6-dioxopiperidin-3-yl)-1,3-dioxo-2,3-dihydro-1H-isoindol-5-yl]-6,6-dimethyl-2,7-diazaspiro[3.5]nonan-7-yl}methyl)piperidin-1-yl]pyrimidin-4-yl}amino)-2-oxo-1-(propan-2-yl)-1,2-dihydroquinolin-3-yl]oxy}-N-methylacetamide] | – | – | ≥ 70% | < 10 nM |
| CNC(=O)COc1cc2cc(Nc3nc(N4CCC(O[C@H]5C[C@H](N6CCC(c7ccc8c(c7F)CN(C7CCC(=O)NC7=O)C8=O)C(F)C6)C5)CC4)ncc3Cl)ccc2n(C(C)C)c1=O (stereo partly drawn) [Compound 201, 2-[[6-[[5-chloro-2-[4-[3-[4-[2-(2,6-dioxo-3-piperidyl)-4-fluoro-1-oxo-isoindolin-5-yl]-3-fluoro-1-piperidyl]cyclobutoxy]-1-piperidyl]pyrimidin-4-yl]amino]-1-isopropyl-2-oxo-3-quinolyl]oxy]-N-methyl-acetamide] | < 10 nM | ≥ 70% | – | – |
| CNC(=O)COc1cc2cc(Nc3nc(N4CCC(O[C@H]5C[C@H](N6CC=C(c7ccc8c(c7)C(=O)N(C7CCC(=O)NC7=O)C8=O)CC6)C5)CC4)ncc3Cl)ccc2n(C(C)C)c1=O (stereo partly drawn) [Compound 303, 2-({6-[(5-chloro-2-{4-[(1r,3r)-3-{4-[2-(2,6-dioxopiperidin-3-yl)-1,3-dioxo-2,3-dihydro-1H-isoindol-5-yl]-1,2,3,6-tetrahydropyridin-1-yl}cyclobutoxy]piperidin-1-yl}pyrimidin-4-yl)amino]-2-oxo-1-(propan-2-yl)-1,2-dihydroquinolin-3-yl}oxy)-N-methylacetamide] | – | – | 50 to 70% | 50 to 100 nM |
| CNC(=O)COc1cc2cc(Nc3cc(N4CCC(CN5CCC6(CC5)CN(c5ccc7c(c5OC)CN(C5CCC(=O)NC5=O)C7=O)C6(C)C)CC4)ncc3Cl)ccc2n(C(C)C)c1=O (stereo not drawn) [Compound 230, 2-{[6-({5-chloro-2-[4-({2-[2-(2,6-dioxopiperidin-3-yl)-4-methoxy-1-oxo-2,3-dihydro-1H-isoindol-5-yl]-1,1-dimethyl-2,7-diazaspiro[3.5]nonan-7-yl}methyl)piperidin-1-yl]pyridin-4-yl}amino)-2-oxo-1-(propan-2-yl)-1,2-dihydroquinolin-3-yl]oxy}-N-methylacetamide] | – | – | – | < 10 nM |
| CNC(=O)COc1cc2cc(Nc3nc(N4CCC(O[C@H]5C[C@H](N6CCC(c7c(OC)cc8c(c7F)CN(C7CCC(=O)NC7=O)C8=O)CC6)C5)CC4)ncc3Cl)ccc2n(C(C)C)c1=O (stereo partly drawn) [Compound 409, 2-({6-[(5-chloro-2-{4-[(1r,3r)-3-{4-[2-(2,6-dioxopiperidin-3-yl)-4-fluoro-6-methoxy-1-oxo-2,3-dihydro-1H-isoindol-5-yl]piperidin-1-yl}cyclobutoxy]piperidin-1-yl}pyrimidin-4-yl)amino]-2-oxo-1-(propan-2-yl)-1,2-dihydroquinolin-3-yl}oxy)-N-methylacetamide] | – | – | ≥ 70% | < 10 nM |
| [2H]C([2H])([2H])Oc1c(N2CC3(CCN(CC4CCN(c5ncc(Cl)c(Nc6ccc7c(c6)cc(OCC(=O)NC)c(=O)n7C(C)C)n5)CC4)CC3)C2(C)C)ccc2c1CN(C1CCC(=O)NC1=O)C2=O (stereo not drawn) [Compound 227, 2-{[6-({5-chloro-2-[4-({2-[2-(2,6-dioxopiperidin-3-yl)-4-(^2H3)methoxy-1-oxo-2,3-dihydro-1H-isoindol-5-yl]-1,1-dimethyl-2,7-diazaspiro[3.5]nonan-7-yl}methyl)piperidin-1-yl]pyrimidin-4-yl}amino)-2-oxo-1-(propan-2-yl)-1,2-dihydroquinolin-3-yl]oxy}-N-methylacetamide] | – | – | 50 to 70% | < 10 nM |
| CNC(=O)COc1cc2cc(Nc3nc(N4CCC(O[C@H]5C[C@H](N6CCC7(CCN(c8ccc9c(c8)C(=O)N(C8CCC(=O)NC8=O)C9=O)C7)CC6)C5)CC4)ncc3Cl)ccc2n(C(C)C)c1=O (stereo partly drawn) [Compound 360, 2-({6-[(5-chloro-2-{4-[(1r,3r)-3-{2-[2-(2,6-dioxopiperidin-3-yl)-1,3-dioxo-2,3-dihydro-1H-isoindol-5-yl]-2,8-diazaspiro[4.5]decan-8-yl}cyclobutoxy]piperidin-1-yl}pyrimidin-4-yl)amino]-2-oxo-1-(propan-2-yl)-1,2-dihydroquinolin-3-yl}oxy)-N-methylacetamide] | – | – | 50 to 70% | < 10 nM |
| CNC(=O)COc1cc2cc(Nc3nc(N4CCC(O[C@H]5C[C@H](N6CC[C@H](c7ccc8c(c7F)CN(C7CCC(=O)NC7=O)C8=O)[C@H](OC)C6)C5)CC4)ncc3Cl)ccc2n(C(C)C)c1=O (stereo partly drawn) [Compound 279, 2-({6-[(5-chloro-2-{4-[(1r,3r)-3-[(3S,4R)-4-[2-(2,6-dioxopiperidin-3-yl)-4-fluoro-1-oxo-2,3-dihydro-1H-isoindol-5-yl]-3-methoxypiperidin-1-yl]cyclobutoxy]piperidin-1-yl}pyrimidin-4-yl)amino]-2-oxo-1-(propan-2-yl)-1,2-dihydroquinolin-3-yl}oxy)-N-methylacetamide] | – | – | ≥ 70% | < 10 nM |
| CCC(C)n1c(=O)c(OCC(=O)NC)cc2cc(Nc3nc(N4CCC(O[C@H]5C[C@H](N6CCC(c7ccc8c(c7F)CN(C7CCC(=O)NC7=O)C8=O)CC6)C5)CC4)ncc3Cl)ccc21 (stereo partly drawn) [Compound 424, 2-{[1-(butan-2-yl)-6-[(5-chloro-2-{4-[(1r,3r)-3-{4-[2-(2,6-dioxopiperidin-3-yl)-4-fluoro-1-oxo-2,3-dihydro-1H-isoindol-5-yl]piperidin-1-yl}cyclobutoxy]piperidin-1-yl}pyrimidin-4-yl)amino]-2-oxo-1,2-dihydroquinolin-3-yl]oxy}-N-methylacetamide] | – | – | ≥ 70% | < 10 nM |
